#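 Interpolation was linear, between the two tested concentrations surrounding the appropriate level; five concentrations were tested over 48 hours in 96-well plates. GI50 is the concentration that inhibits growth by half.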 Activity calls are given as the source filed them. Rule as the data show it: active = GI50 up to about 1.1 µM and inactive = higher.
# What was measured:
# Experiment in all cases: NCI anticancer screen, dose series, 48 h
# SR = system: SR
# MDA-MB-231 = system: MDA-MB-231
# Hs-578T = system: Hs-578T
# A549 = system: A549
# M14 = system: M14
# A498 = system: A498
# MDA-N = system: MDA-N
# IGROV-1 = system: IGROV-1
# NCI-H226 = system: NCI-H226
# BT-549 = system: BT-549
# OVCAR-4 = system: OVCAR-4
# NCI-H23 = system: NCI-H23
# LOX IMVI = system: LOX IMVI
# COLO 205 = system: COLO 205
# NCI/ADR-RES = system: NCI/ADR-RES
# HCC 2998 = system: HCC 2998
# SN12C = system: SN12C
# HCT-15 = system: HCT-15
# HOP-92 = system: HOP-92
# DU-145 = system: DU-145
# OVCAR-5 = system: OVCAR-5
# ACHN = system: ACHN
# KM12 = system: KM12
# UO-31 = system: UO-31
# SNB-19 = system: SNB-19
# CAKI-1 = system: CAKI-1
# PC-3 = system: PC-3
# SK-MEL-28 = system: SK-MEL-28
# MDA-MB-435 = system: MDA-MB-435
# K562 = system: K562
# SK-MEL-2 = system: SK-MEL-2
# NCI-H460 = system: NCI-H460
# OVCAR-8 = system: OVCAR-8
# SF-539 = system: SF-539
# HOP-62 = system: HOP-62
# UACC-62 = system: UACC-62
# MOLT-4 = system: MOLT-4
# HT-29 = system: HT-29
# SF-268 = system: SF-268
# HL-60 = system: HL-60
# TK-10 = system: TK-10
# T47D = system: T47D
# RPMI-8226 = system: RPMI-8226
# UACC-257 = system: UACC-257
# HCT-116 = system: HCT-116
# OVCAR-3 = system: OVCAR-3
# U-251 = system: U-251
# EKVX = system: EKVX
# SK-MEL-5 = system: SK-MEL-5
# SF-295 = system: SF-295
# RXF 393 = system: RXF 393
# 786-0 = system: 786-0
# MCF7 = system: MCF7
# SK-OV-3 = system: SK-OV-3
# CCRF-CEM = system: CCRF-CEM
# SW-620 = system: SW-620
# Malme-3M = system: Malme-3M
# NCI-H522 = system: NCI-H522
compound,measurement,setting,value
CC(C)C[C@@H](NC(=O)[C@@H](Cc1cccc2ccccc12)NC(=O)N1CCOCC1)B(O)O,GI50,SR,27 µM (inactive)
same,GI50,MDA-MB-231,50.5 µM (inactive)
same,GI50,Hs-578T,40.5 µM (inactive)
same,GI50,A549,> 100 µM (inactive)
same,GI50,M14,28.2 µM (inactive)
same,GI50,A498,31 µM (inactive)
same,GI50,MDA-N,20.7 µM (inactive)
same,GI50,IGROV-1,> 100 µM (inactive)
same,GI50,NCI-H226,18 µM (inactive)
same,GI50,BT-549,36.3 µM (inactive)
same,GI50,OVCAR-4,> 100 µM (inactive)
same,GI50,NCI-H23,51.2 µM (inactive)
same,GI50,LOX IMVI,54.6 µM (inactive)
same,GI50,COLO 205,48.4 µM (inactive)
same,GI50,NCI/ADR-RES,> 100 µM (inactive)
same,GI50,HCC 2998,> 100 µM (inactive)
same,GI50,SN12C,96.2 µM (inactive)
same,GI50,HCT-15,> 100 µM
same,GI50,HOP-92,37.1 µM (inactive)
same,GI50,DU-145,> 100 µM (inactive)
same,GI50,OVCAR-5,75.3 µM (inactive)
same,GI50,ACHN,66.1 µM (inactive)
same,GI50,KM12,> 100 µM (inactive)
same,GI50,UO-31,> 100 µM (inactive)
same,GI50,SNB-19,> 100 µM (inactive)
same,GI50,CAKI-1,72.8 µM (inactive)
same,GI50,PC-3,> 100 µM (inactive)
same,GI50,SK-MEL-28,25.2 µM (inactive)
same,GI50,MDA-MB-435,20.8 µM (inactive)
same,GI50,K562,57.9 µM (inactive)
same,GI50,SK-MEL-2,37 µM (inactive)
same,GI50,NCI-H460,> 100 µM (inactive)
same,GI50,OVCAR-8,> 100 µM (inactive)
same,GI50,SF-539,43.4 µM (inactive)
same,GI50,HOP-62,> 100 µM (inactive)
same,GI50,UACC-62,63.1 µM (inactive)
same,GI50,MOLT-4,31.5 µM (inactive)
same,GI50,HT-29,59.4 µM (inactive)
same,GI50,SF-268,61.5 µM (inactive)
same,GI50,HL-60,38.7 µM (inactive)
same,GI50,TK-10,31.9 µM (inactive)
same,GI50,T47D,58.2 µM (inactive)
same,GI50,RPMI-8226,32.5 µM (inactive)
same,GI50,UACC-257,> 100 µM (inactive)
same,GI50,HCT-116,33.2 µM (inactive)
same,GI50,OVCAR-3,29.4 µM (inactive)
same,GI50,U-251,> 100 µM (inactive)
NS(=O)(=O)c1nnc(NS(=O)(=O)c2ccc(F)cc2)s1,GI50,SR,> 100 µM (inactive)
same,GI50,MDA-MB-231,> 100 µM (inactive)
same,GI50,Hs-578T,> 100 µM (inactive)
same,GI50,A549,> 100 µM (inactive)
same,GI50,M14,> 100 µM (inactive)
same,GI50,EKVX,> 100 µM (inactive)
same,GI50,A498,> 100 µM (inactive)
same,GI50,MDA-N,> 100 µM (inactive)
same,GI50,NCI-H226,> 100 µM (inactive)
same,GI50,SK-MEL-5,> 100 µM (inactive)
same,GI50,BT-549,> 100 µM (inactive)
same,GI50,OVCAR-4,> 100 µM (inactive)
same,GI50,SF-295,> 100 µM (inactive)
same,GI50,NCI-H23,> 100 µM (inactive)
same,GI50,LOX IMVI,> 100 µM (inactive)
same,GI50,COLO 205,> 100 µM (inactive)
same,GI50,NCI/ADR-RES,> 100 µM (inactive)
same,GI50,RXF 393,> 100 µM (inactive)
same,GI50,HCC 2998,> 100 µM (inactive)
same,GI50,SN12C,> 100 µM (inactive)
same,GI50,786-0,> 100 µM (inactive)
same,GI50,HCT-15,> 100 µM
same,GI50,HOP-92,> 100 µM (inactive)
same,GI50,DU-145,> 100 µM (inactive)
same,GI50,OVCAR-5,> 100 µM (inactive)
same,GI50,ACHN,> 100 µM (inactive)
same,GI50,KM12,> 100 µM (inactive)
same,GI50,UO-31,> 100 µM (inactive)
same,GI50,SNB-19,> 100 µM (inactive)
same,GI50,CAKI-1,> 100 µM (inactive)
same,GI50,SK-MEL-28,> 100 µM (inactive)
same,GI50,MDA-MB-435,> 100 µM (inactive)
same,GI50,K562,> 100 µM (inactive)
same,GI50,MCF7,> 100 µM (inactive)
same,GI50,SK-OV-3,> 100 µM (inactive)
same,GI50,SK-MEL-2,> 100 µM (inactive)
same,GI50,NCI-H460,> 100 µM (inactive)
same,GI50,OVCAR-8,> 100 µM (inactive)
same,GI50,CCRF-CEM,> 100 µM (inactive)
same,GI50,SF-539,> 100 µM (inactive)
same,GI50,HOP-62,> 100 µM (inactive)
same,GI50,UACC-62,> 100 µM (inactive)
same,GI50,MOLT-4,> 100 µM (inactive)
same,GI50,SF-268,> 100 µM (inactive)
same,GI50,TK-10,> 100 µM (inactive)
same,GI50,T47D,> 100 µM (inactive)
same,GI50,SW-620,> 100 µM (inactive)
same,GI50,RPMI-8226,> 100 µM (inactive)
same,GI50,UACC-257,> 100 µM (inactive)
same,GI50,HCT-116,> 100 µM (inactive)
same,GI50,OVCAR-3,> 100 µM (inactive)
same,GI50,U-251,> 100 µM (inactive)
CCC/N=C1\S/C(=C/c2ccc(OC)c(OC)c2)C(=O)N1c1ccccc1,GI50,SR,51.8 µM (inactive)
same,GI50,MDA-MB-231,20.6 µM (inactive)
same,GI50,Hs-578T,9.1 µM (inactive)
same,GI50,A549,42.1 µM (inactive)
same,GI50,M14,> 100 µM (inactive)
same,GI50,EKVX,15.8 µM (inactive)
same,GI50,A498,21.5 µM (inactive)
same,GI50,MDA-N,> 100 µM (inactive)
same,GI50,IGROV-1,80.2 µM (inactive)
same,GI50,NCI-H226,41.8 µM (inactive)
same,GI50,SK-MEL-5,37.6 µM (inactive)
same,GI50,BT-549,74.8 µM (inactive)
same,GI50,OVCAR-4,16 µM (inactive)
same,GI50,SF-295,11.3 µM (inactive)
same,GI50,NCI-H23,76.7 µM (inactive)
same,GI50,LOX IMVI,> 100 µM (inactive)
same,GI50,COLO 205,> 100 µM (inactive)
same,GI50,NCI/ADR-RES,93.1 µM (inactive)
same,GI50,HCC 2998,> 100 µM (inactive)
same,GI50,SN12C,54.8 µM (inactive)
same,GI50,786-0,13.1 µM (inactive)
same,GI50,HCT-15,> 100 µM
same,GI50,HOP-92,33.1 µM (inactive)
same,GI50,OVCAR-5,44.9 µM (inactive)
same,GI50,ACHN,42.8 µM (inactive)
same,GI50,Malme-3M,> 100 µM (inactive)
same,GI50,KM12,> 100 µM (inactive)
same,GI50,UO-31,32.5 µM (inactive)
same,GI50,SNB-19,17.8 µM (inactive)
same,GI50,CAKI-1,44.5 µM (inactive)
same,GI50,PC-3,43.8 µM (inactive)
same,GI50,SK-MEL-28,> 100 µM (inactive)
same,GI50,MDA-MB-435,> 100 µM (inactive)
same,GI50,K562,> 100 µM (inactive)
same,GI50,MCF7,> 100 µM (inactive)
same,GI50,NCI-H522,40.6 µM (inactive)
same,GI50,SK-OV-3,11.2 µM (inactive)
same,GI50,SK-MEL-2,31.8 µM (inactive)
same,GI50,NCI-H460,61 µM (inactive)
same,GI50,OVCAR-8,82.2 µM (inactive)
same,GI50,CCRF-CEM,58.7 µM (inactive)
same,GI50,SF-539,7.91 µM (inactive)
same,GI50,HOP-62,2.84 µM (inactive)
same,GI50,UACC-62,37 µM (inactive)
same,GI50,MOLT-4,33.9 µM (inactive)
same,GI50,HT-29,> 100 µM (inactive)
same,GI50,SF-268,15.1 µM (inactive)
same,GI50,HL-60,59.8 µM (inactive)
same,GI50,TK-10,22.8 µM (inactive)
same,GI50,T47D,> 100 µM (inactive)
same,GI50,SW-620,> 100 µM (inactive)
same,GI50,RPMI-8226,43.2 µM (inactive)
same,GI50,UACC-257,76.7 µM (inactive)
same,GI50,HCT-116,24 µM (inactive)
same,GI50,OVCAR-3,12.6 µM (inactive)
same,GI50,U-251,12.6 µM (inactive)
CCCCCCNC(=O)c1cc(C#Cc2cc(OC)ccc2OC)ccc1OC,GI50,SR,3.18 µM (inactive)
same,GI50,MDA-MB-231,> 100 µM (inactive)
same,GI50,Hs-578T,> 100 µM (inactive)
same,GI50,A549,> 100 µM (inactive)
same,GI50,M14,17.5 µM (inactive)
same,GI50,EKVX,58.9 µM (inactive)
same,GI50,A498,> 100 µM (inactive)
same,GI50,MDA-N,3.22 µM (inactive)
same,GI50,IGROV-1,72.1 µM (inactive)
same,GI50,SK-MEL-5,19.6 µM (inactive)
same,GI50,BT-549,18.9 µM (inactive)
same,GI50,OVCAR-4,> 100 µM (inactive)
same,GI50,SF-295,51.9 µM (inactive)
same,GI50,NCI-H23,47.4 µM (inactive)
same,GI50,LOX IMVI,> 100 µM (inactive)
same,GI50,COLO 205,55.3 µM (inactive)
same,GI50,NCI/ADR-RES,47.8 µM (inactive)
same,GI50,HCC 2998,1.93 µM (inactive)
same,GI50,786-0,> 100 µM (inactive)
same,GI50,HCT-15,7.48 µM
same,GI50,HOP-92,9.77 µM (inactive)
same,GI50,OVCAR-5,> 100 µM (inactive)
same,GI50,ACHN,> 100 µM (inactive)
same,GI50,KM12,> 100 µM (inactive)
same,GI50,UO-31,62.1 µM (inactive)
same,GI50,SNB-19,> 100 µM (inactive)
same,GI50,CAKI-1,> 100 µM (inactive)
same,GI50,PC-3,62.1 µM (inactive)
same,GI50,SK-MEL-28,3.04 µM (inactive)
same,GI50,MDA-MB-435,2.75 µM (inactive)
same,GI50,K562,3.92 µM (inactive)
same,GI50,MCF7,> 100 µM (inactive)
same,GI50,NCI-H522,6.15 µM (inactive)
same,GI50,SK-OV-3,> 100 µM (inactive)
same,GI50,SK-MEL-2,> 100 µM (inactive)
same,GI50,NCI-H460,8.73 µM (inactive)
same,GI50,OVCAR-8,> 100 µM (inactive)
same,GI50,MOLT-4,4.84 µM (inactive)
same,GI50,HT-29,7.53 µM (inactive)
same,GI50,SF-268,> 100 µM (inactive)
same,GI50,TK-10,> 100 µM (inactive)
same,GI50,T47D,2.31 µM (inactive)
same,GI50,SW-620,8.49 µM (inactive)
same,GI50,RPMI-8226,8.28 µM (inactive)
same,GI50,UACC-257,> 100 µM (inactive)
same,GI50,U-251,> 100 µM (inactive)

# From ChEMBL document CHEMBL1201862, “PubChem BioAssay data set” (2004)
